Test [1] addresses T1, ZAP-70 (Homo sapiens, UniProt P43403).
T1 construct: endogenous in cells; host or cells: cell lysate
T1 sequence (P43403 1-619): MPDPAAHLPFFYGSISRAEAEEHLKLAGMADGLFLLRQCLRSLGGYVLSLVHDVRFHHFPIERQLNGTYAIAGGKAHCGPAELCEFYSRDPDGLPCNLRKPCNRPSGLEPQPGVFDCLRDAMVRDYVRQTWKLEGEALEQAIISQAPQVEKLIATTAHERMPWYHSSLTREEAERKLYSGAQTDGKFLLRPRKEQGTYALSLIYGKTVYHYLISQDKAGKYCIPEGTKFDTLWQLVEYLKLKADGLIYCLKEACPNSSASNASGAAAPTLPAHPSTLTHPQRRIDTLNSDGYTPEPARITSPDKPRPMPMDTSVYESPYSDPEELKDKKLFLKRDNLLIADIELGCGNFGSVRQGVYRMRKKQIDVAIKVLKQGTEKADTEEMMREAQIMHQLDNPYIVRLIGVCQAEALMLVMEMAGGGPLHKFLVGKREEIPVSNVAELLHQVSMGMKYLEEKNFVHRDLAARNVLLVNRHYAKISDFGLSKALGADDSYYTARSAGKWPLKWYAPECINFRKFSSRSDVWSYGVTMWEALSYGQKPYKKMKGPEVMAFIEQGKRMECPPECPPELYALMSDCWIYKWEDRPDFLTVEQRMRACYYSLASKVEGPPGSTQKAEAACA
Kind of test: ZAP-70 kinobeads assay. It counts as binding. As to conditions: competition with immobilized aminopyrido-pyrimidine ligand 24 in cell lysate; ZAP-70 detected by dot blot. A digest of the protocol:
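Competition binding format: compounds compete with a bead-immobilized aminopyrido-pyrimidine ligand for ZAP-70 in cell lysate. After bead separation and elution, bound ZAP-70 measured by antibody dot blot with infrared read-out.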

For test [2], the system named is Jurkat cells. The experiment in a line: Calcium release assay (Fluo-4 flow cytometry after anti-CD3 stimulation). It counts as cell-based. As to conditions: Homo sapiens, Jurkat cell line J77, anti-CD3 activation, read-out: IC50 (Calcium ion release in cells). The protocol: Compounds of the present invention were tested in a Calcium release assay as described below.
The development of fluorescent probes makes it possible to measure the concentration of intracellular free Calcium ions in single living cells. Cells are first loaded with a cell-permeable Ca^2+-sensitive dye, then the test compound is added. Finally, cells are activated through the T cell receptor with an anti-CD3 antibody shortly before data acquisition on the flow cytometer. The release of Ca^2+ is measured as a function of time after cell stimulation. This protocol describes the flow cytometry method using the Fluo-3 and Fluo-4 dyes (Minta et al., 1989, J. Biol. Chem. 264(14):8171-8178) to measure the intracellular Ca^2+ concentration in Jurkat cells (see also June et al., 1997, Measurement of intracellular calcium ions by flow cytometry. In: Current Protocols in Cytometry (1997) Unit 9.8.1-9.8.19, John Wiley & Sons, Inc.).
In general, cells should be handled in the shortest time possible to assure their stability. Therefore the preparation of all materials in advance is highly recommended as well as using any incubation or centrifugation time to prepare the next steps (e.g. preparing compound dilution or starting the flow cytometer).
1) Prepare a work plan indicating the number of samples to be analyzed including controls. 2) Cell harvest: Centrifuge 50 to 100 ml of a Jurkat cell culture for 5 minutes at 1100 rpm. Discard the supernatant, pool the resuspended cell pellets in a single 50 ml Falcon tube, and fill up to 50 ml with PBS—CaCl2 (without FCS). Centrifuge again sample again. 3) Resuspend cell pellet with PBS—CaCl2 (without FCS) to achieve a concentration not lower than 10×10^6 cells/ml. Prepare an adequate dilution to evaluate the cell concentration and count the cells. 4) Separate the volume of cells needed to be loaded (for example […] for 20 samples) in a 50 ml Falcon tube. Fill up with PBS—CaCl2 to 900 μl for 107 cells. 5) Prepare in the dark a 1:1 mix of FLUO-4 (1 mM)+Pluronic F-127 (20%). 5 μl of Fluo-4 are needed per 107 cells. 6) Prepare a 1/10 dilution of this mix with PBS—CaCl2 (in the dark; for example 5 μl Fluo-4+5 μl F-127 completed to 100 μl). 7) Add the dye solution to the cells. […] 8) Incubate the sample for 30 minutes in a cell incubator (37° C., 5% CO2). Mix from time to time. 9) During this time prepare the adequate test compound dilution in PBS—CaCl2 (with 10% FCS). The solution should be 10 times more concentrated than the desired final concentration. Vortex each dilution. Prepare also the antibody dilutions: anti-CD3 (1/200) and GAM (1/25). 10) Label FACS tubes and distribute in the corresponding tube 30 μl of the compound dilution or only buffer for the control tubes. 11) After 30 minutes of incubation wash the cells twice in PBS—CaCl2 (with 10% FCS). During the washing steps make sure that the flow cytometer is already “ON” in order to warm the laser. 12) Resuspend the cell pellet in PBS—CaCl2 (with 10% FCS) at a concentration of 1.5×10^6 cells/ml. 13) Distribute 300 μl of cell suspension into the FACS tubes and mix gently. The compound incubation is starting. Keep samples at room temperature in the dark. 14) Open the settings of the cytometer. It is advised to have a template ready which is used for all measurements. Settings of the machine should also be the same from one experiment to the other which permits to evaluate the reproducibility of the cell preparation. 15) In Setup modus control your cell preparation on the cytometer. Cells should fit in the pre-defined gates. 16) During the compound incubation time, check also that cells are responding to the anti-CD3 activation as expected. Set a timer at 8 sec. Add 6 μl of anti-CD3 dilution (0.2 μg/ml final) and mix gently. Add 1 μl of GAM dilution (0.75 μg/ml final) and mix gently. Incubate the samples in water bath at 37° C. while starting timer. After 8 seconds of incubation, acquire data at medium speed for 200 seconds. […]

The structures appear in SMILES notation. Counter-ions that a name gives are not always drawn.

Broadly, the IC50 is the midpoint of a concentration-inhibition curve.

For `CNCCS(=O)(=O)Nc1ccccc1Nc1nc(Nc2cc(OC)c(OC)c(OC)c2)ncc1F` [Example 62, N-(2-(5-fluoro-2-(3,4,5-trimethoxyphenylamino)pyrimidin-4-ylamino)phenyl)-2-(methylamino)ethanesulfonamide], the half-inhibitory concentration (IC50) in test [1] was in the range of 1000 to 10000 nM; in test [2], 100 to 1000 nM.

On to `CNCCS(=O)(=O)Nc1cccc(Nc2nc(Nc3cc(OC)c(OC)c(OC)c3)ncc2F)c1` [Example 64, N-(3-(5-fluoro-2-(3,4,5-trimethoxyphenylamino)pyrimidin-4-ylamino)phenyl)-2-(methylamino)ethanesulfonamide], for which the half-inhibitory concentration (IC50) in test [1] and in test [2] was 100 to 1000 nM throughout.

In the case of `COc1cc(Nc2ncc(C)c(Nc3ccccc3NS(C)(=O)=O)n2)cc(OC)c1OC` [Example 66, N-(2-(5-methyl-2-(3,4,5-trimethoxyphenylamino)pyrimidin-4-ylamino)phenyl)methanesulfonamide], the 50% inhibitory concentration (IC50) in test [1] and in test [2] was 100 to 1000 nM in each case.

For the compound `Cc1cc(C)cc(Nc2ncc(C)c(Nc3ccccc3NS(C)(=O)=O)n2)c1` [Example 67, N-(2-(2-(3,5-dimethylphenylamino)-5-methylpyrimidin-4-ylamino)phenyl)methanesulfonamide], the 50% inhibitory concentration (IC50) in test [1] and in test [2] was 100 to 1000 nM each time.

Regarding `COc1cc(Nc2nccc(Nc3ccccc3NS(C)(=O)=O)n2)cc(OC)c1OC` [Example 69, N-(2-(2-(3,4,5-trimethoxyphenylamino)pyrimidin-4-ylamino)phenyl)methanesulfonamide], the half-maximal inhibitory concentration (IC50) in test [1] and in test [2] was 100 to 1000 nM each time.

Take `COc1cc(Nc2ncc(Br)c(Nc3ccccc3NS(C)(=O)=O)n2)cc(OC)c1OC` [Example 70, N-(2-(5-bromo-2-(3,4,5-trimethoxyphenylamino)pyrimidin-4-ylamino)phenyl)methanesulfonamide]: the IC50 was less than 100 nM in test [1] and 100 to 1000 nM in test [2].

As to `Cc1cc(C)cc(Nc2ncc(F)c(Nc3ccccc3N(C)S(C)(=O)=O)n2)c1` [Example 72, N-(2-(2-(3,5-dimethylphenylamino)-5-fluoropyrimidin-4-ylamino)phenyl)-N-methylmethanesulfonamide], the IC50 in test [1] fell in the range of 1000 to 10000 nM; in test [2], 100 to 1000 nM.

As to `CS(=O)(=O)Nc1ccccc1Nc1nc(Nc2cccc(O)c2)ncc1F` [Example 76, N-(2-(5-fluoro-2-(3-hydroxyphenylamino)pyrimidin-4-ylamino)phenyl)methanesulfonamide], the concentration for half-maximal inhibition (IC50) in test [1] and in test [2] was 100 to 1000 nM throughout.

As to `CS(=O)(=O)Nc1ccccc1Nc1nc(Nc2cccc(OCCN3CCOCC3)c2)ncc1F` [Example 77, N-(2-(5-fluoro-2-(3-(2-morpholinoethoxy)phenylamino)pyrimidin-4-ylamino)phenyl)methanesulfonamide], the 50% inhibitory concentration (IC50) in test [1] and in test [2] was 100 to 1000 nM each time.

Turning to `CS(=O)(=O)Nc1ccccc1Nc1nc(Nc2cccc(OCCO)c2)ncc1F` [Example 78, N-(2-(5-fluoro-2-(3-(2-hydroxyethoxy)phenylamino)pyrimidin-4-ylamino)phenyl)methanesulfonamide], the results for the IC50 in test [1] and in test [2] were 100 to 1000 nM and less than 100 nM, respectively.

On to `CS(=O)(=O)Nc1ccccc1Nc1nc(Nc2cccc(OCCN3CCCCC3)c2)ncc1F` [Example 79, N-(2-(5-fluoro-2-(3-(2-(piperidin-1-yl)ethoxy)phenylamino)pyrimidin-4-ylamino)phenyl)methanesulfonamide formate], for which the 50% inhibitory concentration (IC50) in test [1] and in test [2] was less than 100 nM each time.

For the compound `CS(=O)(=O)Nc1ccccc1Nc1nc(Nc2ccc(OCCN3CCOCC3)cc2)ncc1F` [Example 86, N-(2-(5-fluoro-2-(4-(2-morholinoethoxy)phenylamino)pyrimidin-4-ylamino)phenyl)methanesulfonamide], the concentration for half-maximal inhibition (IC50) in test [1] and in test [2] was 100 to 1000 nM in each case.

With `CS(=O)(=O)Nc1ccccc1Nc1nc(Nc2ccc(OCCN3CCCCC3)cc2)ncc1F` [Example 87], the IC50 in test [1] is 100 to 1000 nM; in test [2] it was less than 100 nM.

In the case of `COc1cc(Nc2ncc(F)c(Nc3ccccc3NS(C)(=O)=O)n2)ccc1N1CCCC1` [Example 88, N-(2-(5-fluoro-2-(3-methoxy-4-(pyrrolidin-1-yl)phenylamino)pyrimidin-4-ylamino)phenyl)methanesulfonamide], the IC50 in test [1] and in test [2] was 100 to 1000 nM each time.

With `CN1CCN(CCOc2ccc(Nc3ncc(F)c(Nc4ccccc4NS(C)(=O)=O)n3)cc2)CC1` [Example 89, N-(2-(5-Fluoro-2-(4-(2-(4-methylpiperazin-1-yl)ethoxy)phenylamino)pyrimidin-4-ylamino)phenyl)methanesulfonamide], the IC50 in test [1] and in test [2] was 100 to 1000 nM in each case.

Consider `CS(=O)(=O)Nc1ccccc1Nc1nc(Nc2ccc(OCCCN3CCCCC3)cc2)ncc1F` [Example 90], for which the IC50 in test [1] and in test [2] was 100 to 1000 nM in each case.

Turning to `CN1CCN(CCCOc2ccc(Nc3ncc(F)c(Nc4ccccc4NS(C)(=O)=O)n3)cc2)CC1` [Example 91, N-(2-(5-fluoro-2-(4-(3-(4-methylpiperazin-1-yl)propoxy)phenylamino)pyrimidin-4-ylamino)phenyl)methanesulfonamide], the IC50 in test [1] and in test [2] was 100 to 1000 nM each time.

As for `CS(=O)(=O)Nc1ccccc1Nc1nc(Nc2ccc(OCCCN3CCCC3)cc2)ncc1F` [Example 92], the half-maximal inhibitory concentration (IC50) in test [1] and in test [2] was 100 to 1000 nM throughout.

As to `CS(=O)(=O)Nc1ccccc1Nc1nc(Nc2ccc(NCCN3CCCC3)cc2)ncc1F` [Example 93, N-(2-(5-fluoro-2-(4-(2-pyrrolidin-1-yl)ethylamino)phenylamino)pyrimidin-4-ylamino)phenyl)methanesulfonamide formate], the IC50 in test [1] and in test [2] was 100 to 1000 nM in each case.

Take `COc1cc(Nc2ncc(F)c(Nc3ccccc3NS(C)(=O)=O)n2)cc(OCCN2CCCC2)c1` [Example 94, N-(2-(5-fluoro-2-(3-methoxy-5-(2-(pyrrolidin-1-yl)ethoxy)phenylamino)pyrimidin-4-ylamino)phenyl)methanesulfonamide formate salt]: the IC50 in test [1] and in test [2] was 100 to 1000 nM in each case.

The record behind these values is patent US20110098288A1, “SULFONAMIDES AS ZAP-70 INHIBITORS” (priority 2008, published 2011).
